Experimental findings from ChEMBL document CHEMBL1151847, “In vitro skin diffusion study of pure forskolin versus a forskolin-containing Plectranthus barbatus root extract” (J Nat Prod, 2009) are described below.

Data set [1] has as its system Zone of skin. Briefly: Permeability across human skin assessed as drug content per gram of wet tissue applied topically after 24 hrs by LC-MS analysis. The data set is classed as ADME, tissue-based.
Data set [2] deals with Zone of skin. Put plainly: Permeability across human skin assessed as cumulative drug content applied topically after 24 hrs by LC-MS analysis. The format is ADME, tissue-based.
Data set [3] concerns Zone of skin. Put plainly: Permeability across human skin assessed as permeation lag time applied topically after 24 hrs by LC-MS analysis. The data set is classed as ADME, tissue-based.
In data set [4] the test system is Zone of skin. Put plainly: Permeability across guinea pig skin assessed as drug content per gram of wet tissue applied topically after 24 hrs by LC-MS analysis. The format is ADME, tissue-based, Cavia porcellus. Particulars: topical_or_ocular.
Data set [5] relates to Zone of skin. Briefly: Permeability across guinea pig skin assessed as cumulative drug content applied topically after 24 hrs by LC-MS analysis. The data set is classed as ADME, tissue-based, Cavia porcellus. Particulars: topical_or_ocular.
The test system of data set [6] is Zone of skin. Put plainly: Permeability across guinea pig skin assessed as permeation lag time applied topically after 24 hrs by LC-MS analysis. The data set is classed as ADME, tissue-based, Cavia porcellus. Particulars: topical_or_ocular.
The nature of data set [7]: Ratio of permeability flux across guinea pig skin to permeability flux across human skin. The format is ADME, tissue-based, Zone of skin.

Consider `C=C[C@@]1(C)CC(=O)[C@]2(O)[C@@]3(C)[C@@H](O)CCC(C)(C)[C@@H]3[C@H](O)[C@H](OC(C)=O)[C@@]2(C)O1` [COLFORSIN], for which the Drug uptake in the data set with Zone of skin [1] was determined as 20 µmol; with Zone of skin [2], 3.8 nmol; in the data set with Zone of skin [4], 5.8 µmol; in the data set on Zone of skin [5] it was 75.6 nmol. The Activity in the data set on Zone of skin [3] is 1.5 h; in the data set with Zone of skin [6] it was 2.8 h. The Ratio in data set [7] was 19.
